ChEMBL document CHEMBL1135683, “2002 Alfred Burger Award Address in Medicinal Chemistry. Natural products and design: interrelated approaches in drug discovery” (J Med Chem, 2002)
Where a SMILES comes first, the peptide text is derived from it. The star is where a group is joined. Octanoyl = CCCCCCCC(=O)*

What was measured:
[1] = molecular target: T1, Angiotensin-converting enzyme (Homo sapiens, UniProt P12821); assay: Inhibition of Angiotensin I converting enzyme (ACE) in Bothrops jararaca venom
[2] = molecular target: T1, Angiotensin-converting enzyme; assay: The compound was evaluated for the (%) inhibition of Angiotensin I converting enzyme in venom of Bothrops jararaca at the dose of 10e-4 M; type: tissue-based
[3] = molecular target: Growth hormone secretagogue receptor type 1 (Homo sapiens, UniProt Q92847); assay: Ability to displace [125I]ghrelin from cloned human Growth hormone secretagogue receptor type I (GSH1a) expressed in COS-7 cells; type: cell-based
[4] = molecular target: T1, Angiotensin-converting enzyme; assay: Inhibitory activity against Angiotensin I converting enzyme (ACE) in venom of Bothrops jararaca; type: tissue-based
[5] = molecular target: Somatostatin receptor type 5 (Homo sapiens, UniProt P35346); assay: Binding affinity towards Somatostatin receptor type 5 (hsst5)
[6] = molecular target: Somatostatin receptor type 4 (Homo sapiens, UniProt P31391); assay: Binding affinity towards Somatostatin receptor type 4 (hsst4)
[7] = molecular target: Somatostatin receptor type 3 (Homo sapiens, UniProt P32745); assay: Binding affinity towards Somatostatin receptor type 3 (hsst3)
[8] = molecular target: Somatostatin receptor type 1 (Homo sapiens, UniProt P30872); assay: Binding affinity towards Somatostatin receptor type 1 (hsst1)
[9] = The compound was evaluated for the inhibition of Glycolate oxidase

T1 sequence (P12821 whole entry): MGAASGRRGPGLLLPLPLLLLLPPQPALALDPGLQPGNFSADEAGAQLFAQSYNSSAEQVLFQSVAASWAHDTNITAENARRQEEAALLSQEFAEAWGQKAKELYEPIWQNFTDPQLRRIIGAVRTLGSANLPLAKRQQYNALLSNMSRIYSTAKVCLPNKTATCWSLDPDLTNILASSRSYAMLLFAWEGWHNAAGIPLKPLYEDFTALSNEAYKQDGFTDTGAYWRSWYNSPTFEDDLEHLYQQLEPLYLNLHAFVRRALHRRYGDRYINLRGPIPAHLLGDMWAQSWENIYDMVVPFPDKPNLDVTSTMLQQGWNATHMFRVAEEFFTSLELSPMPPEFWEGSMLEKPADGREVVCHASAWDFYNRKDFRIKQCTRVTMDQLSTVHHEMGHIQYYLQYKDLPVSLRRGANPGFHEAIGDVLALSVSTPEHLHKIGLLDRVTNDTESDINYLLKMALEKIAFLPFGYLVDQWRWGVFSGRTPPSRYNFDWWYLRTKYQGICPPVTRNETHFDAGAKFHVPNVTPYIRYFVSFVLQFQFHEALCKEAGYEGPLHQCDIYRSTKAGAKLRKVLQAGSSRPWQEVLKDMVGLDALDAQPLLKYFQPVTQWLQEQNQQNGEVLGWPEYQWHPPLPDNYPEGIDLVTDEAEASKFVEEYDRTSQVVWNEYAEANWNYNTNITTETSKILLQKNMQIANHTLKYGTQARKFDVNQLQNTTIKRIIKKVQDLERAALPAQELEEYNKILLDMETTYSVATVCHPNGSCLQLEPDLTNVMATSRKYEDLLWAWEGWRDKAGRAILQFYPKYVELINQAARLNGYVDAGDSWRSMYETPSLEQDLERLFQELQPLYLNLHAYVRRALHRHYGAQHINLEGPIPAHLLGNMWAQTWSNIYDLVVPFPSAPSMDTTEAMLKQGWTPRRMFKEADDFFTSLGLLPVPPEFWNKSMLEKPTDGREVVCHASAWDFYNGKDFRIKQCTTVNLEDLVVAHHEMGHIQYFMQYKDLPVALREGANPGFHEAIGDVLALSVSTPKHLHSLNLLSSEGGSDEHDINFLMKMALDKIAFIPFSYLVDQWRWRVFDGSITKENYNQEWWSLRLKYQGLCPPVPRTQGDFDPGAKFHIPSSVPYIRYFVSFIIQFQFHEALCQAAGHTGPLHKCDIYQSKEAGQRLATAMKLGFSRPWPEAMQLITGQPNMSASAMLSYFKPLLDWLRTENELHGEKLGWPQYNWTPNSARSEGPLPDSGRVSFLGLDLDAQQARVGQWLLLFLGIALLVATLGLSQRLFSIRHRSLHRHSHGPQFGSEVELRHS
Growth hormone secretagogue receptor type 1, sequence (Q92847 whole entry): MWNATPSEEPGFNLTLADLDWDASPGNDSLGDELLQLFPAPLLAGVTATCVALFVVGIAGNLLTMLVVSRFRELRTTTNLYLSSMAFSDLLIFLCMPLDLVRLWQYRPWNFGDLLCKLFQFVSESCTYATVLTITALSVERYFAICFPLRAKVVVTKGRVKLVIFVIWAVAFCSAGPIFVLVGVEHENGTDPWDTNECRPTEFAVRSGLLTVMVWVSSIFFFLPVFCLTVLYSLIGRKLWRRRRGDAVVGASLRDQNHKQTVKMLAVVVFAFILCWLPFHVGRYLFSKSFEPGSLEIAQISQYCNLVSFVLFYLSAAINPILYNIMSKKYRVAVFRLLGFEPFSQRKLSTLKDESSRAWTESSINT
Somatostatin receptor type 3, sequence (P32745 whole entry): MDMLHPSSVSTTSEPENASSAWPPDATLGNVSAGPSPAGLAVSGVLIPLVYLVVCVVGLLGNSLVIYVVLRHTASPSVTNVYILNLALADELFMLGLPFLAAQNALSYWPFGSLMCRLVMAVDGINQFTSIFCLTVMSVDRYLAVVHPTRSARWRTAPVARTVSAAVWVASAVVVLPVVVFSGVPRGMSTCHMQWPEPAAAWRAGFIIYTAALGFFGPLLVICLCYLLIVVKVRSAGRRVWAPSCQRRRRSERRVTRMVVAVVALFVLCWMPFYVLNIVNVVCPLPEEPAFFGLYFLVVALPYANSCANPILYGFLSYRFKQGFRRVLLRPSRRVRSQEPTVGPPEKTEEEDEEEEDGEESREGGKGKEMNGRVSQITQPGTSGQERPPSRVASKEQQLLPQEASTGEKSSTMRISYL
Somatostatin receptor type 5, sequence (P35346 whole entry): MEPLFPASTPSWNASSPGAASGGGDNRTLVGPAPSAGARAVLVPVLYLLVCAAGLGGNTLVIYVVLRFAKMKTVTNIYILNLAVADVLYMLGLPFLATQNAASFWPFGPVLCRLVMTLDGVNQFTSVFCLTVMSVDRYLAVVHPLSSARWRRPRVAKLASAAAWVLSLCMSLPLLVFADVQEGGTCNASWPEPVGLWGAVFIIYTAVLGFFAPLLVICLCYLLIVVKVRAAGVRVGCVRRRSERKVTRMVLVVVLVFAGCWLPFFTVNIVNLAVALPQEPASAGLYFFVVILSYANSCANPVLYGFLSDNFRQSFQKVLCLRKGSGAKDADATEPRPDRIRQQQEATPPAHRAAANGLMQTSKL
Somatostatin receptor type 4, sequence (P31391 whole entry): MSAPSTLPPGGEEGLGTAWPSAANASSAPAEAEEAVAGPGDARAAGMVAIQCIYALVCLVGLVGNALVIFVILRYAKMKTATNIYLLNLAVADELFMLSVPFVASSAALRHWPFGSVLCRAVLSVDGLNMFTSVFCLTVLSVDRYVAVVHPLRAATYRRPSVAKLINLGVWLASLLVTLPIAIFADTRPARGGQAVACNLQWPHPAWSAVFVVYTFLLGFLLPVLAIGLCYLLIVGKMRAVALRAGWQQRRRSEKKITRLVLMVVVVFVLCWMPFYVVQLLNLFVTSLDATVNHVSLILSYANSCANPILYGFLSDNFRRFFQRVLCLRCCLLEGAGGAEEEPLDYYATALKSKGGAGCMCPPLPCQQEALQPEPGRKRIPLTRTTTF
Somatostatin receptor type 1, sequence (P30872 whole entry): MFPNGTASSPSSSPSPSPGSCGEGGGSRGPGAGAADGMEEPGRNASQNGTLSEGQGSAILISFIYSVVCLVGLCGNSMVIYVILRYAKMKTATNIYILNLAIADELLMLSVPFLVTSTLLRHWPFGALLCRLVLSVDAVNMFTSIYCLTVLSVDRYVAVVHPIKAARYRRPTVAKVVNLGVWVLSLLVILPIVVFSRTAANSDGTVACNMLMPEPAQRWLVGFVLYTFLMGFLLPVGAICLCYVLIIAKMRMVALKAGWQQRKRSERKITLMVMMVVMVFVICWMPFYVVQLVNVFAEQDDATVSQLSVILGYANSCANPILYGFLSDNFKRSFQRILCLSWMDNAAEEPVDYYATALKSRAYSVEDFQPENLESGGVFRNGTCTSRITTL

Molecule `CC(CCC(=O)N1CCC[C@H]1C(=O)O)C(=O)O` (stereo partly specified) has an IC50 [1] of 260 µM.

Work on `O=C(O)CCC(=O)N1CCC[C@H]1C(=O)O` yielded an inhibition [2] of 43%.

`CCCCCCCC(=O)OC[C@H](NC(=O)[C@H](CO)NC(=O)CN)C(=O)N[C@@H](Cc1ccccc1)C(=O)N[C@@H](CC(C)C)C(=O)N[C@@H](CO)C(=O)N1CCC[C@H]1C(=O)N[C@@H](CCC(=O)O)C(=O)N[C@@H](Cc1c[nH]cn1)C(=O)N[C@@H](CCC(N)=O)C(=O)N[C@@H](CCCN=C(N)N)C(=O)N[C@H](C(=O)N[C@@H](CCC(N)=O)C(=O)N[C@@H](CCC(N)=O)C(=O)N[C@@H](CCCN=C(N)N)C(=O)N[C@@H](CCCCN)C(=O)N[C@@H](CCC(=O)O)C(=O)N[C@@H](CO)C(=O)N[C@@H](CCCCN)C(=O)N[C@@H](CCCCN)C(=O)N1CCC[C@H]1C(=O)N1CCC[C@H]1C(=O)N1CCC[C@H]1C(=O)N[C@@H](C)C(=O)N[C@@H](CCCCN)C(=O)N[C@@H](CC(C)C)C(=O)N[C@@H](CCC(N)=O)C(=O)N1CCC[C@H]1C(=O)N[C@@H](CCCN=C(N)N)C(=O)O)C(C)C` (H-GSS(Octanoyl)FLSPEHQRVQQRKESKKPPPAKLQPR-OH) gave an IC50 [3] of 0.71 nM.

`O=C(O)CCCC(=O)N1CCC[C@H]1C(=O)O` showed an IC50 [1] of 70 µM.

`O=CC(Cc1ccccc1)NC(CCc1ccccc1)C(=O)O` (stereo unspecified) gave a Ki [4] of 50 µM.

With H-EKWAP-OH the IC50 [1] was 0.06 µM.

`C[C@@H](c1c[nH]c2ccccc12)[C@@H](NC(=O)N1CCC(n2c(=O)[nH]c3ccccc32)CC1)C(=O)N[C@@H](CCCCN)C(=O)OC(C)(C)C` showed a Ki [5] of 163 nM, a Ki [6] of 81 nM and a Ki [7] of 31 nM. For the same molecule, the Ki [8] was 2390 nM.

`O=C(O)/C(O)=C\C(=O)c1ccc(-c2ccc(Br)cc2)cc1` showed an IC50 [9] of 60 nM.
